Measurements: US20070269529A1, “Method For Treating Plants And Plant Parts” (priority 2003, published 2007)

How the values were obtained:
Assay type in all cases: cell-based, Raphanus sativus L. cv. Cherry-Belle
radish cotyledons [1] = experiment: Radish cotyledon expansion bioassay (fresh weight, chlorophyll); conditions: compounds 20 mg/L, 72 h, 25° C.; for Change in fresh weight: continuous illumination
Description: (§1) Seeds of Raphanus sativus L. cv. Cherry-Belle were germinated in darkness at 24° C. for 40 h in Petri dishes containing filter paper wetted with distilled water. The smaller of the two cotyledons was excised, the fresh weight determined, and 10 cotyledons placed adaxial side down on filter paper in Petri dishes containing 7.5 mL of phosphate buffered saline (PBS, 2 mM, pH 6.0) and the compounds to be tested at 20 mg/L. Cotyledons were then incubated under continuous illumination up to 72 h at 24° C. or 25° C. and the increase in fresh weight determined. Chlorophyll content was determined after extraction of tissue into 80% EtOH (containing butylated hydroxytoluene 10 mg/L) and quantified using the equations Chl a=(13.95A663)-(6.88A647) and Chl b=(24.96A652)-(7.32A663) as described by Lichtenthaler, H K (Methods in Enzymology 148:350-382, 1987). IAA oxidase, PAL, PPO and POD activity were determined as described by Kato, M et al. (Plant and Cell Physiology 41:440-447, 2000) and Li, X et al. (Plant Science 164:549-556, 2003).
In order to remove variability from the bioassay—due presumably to temporal changes in the concentration of root-derived cytokinins in cotyledons—the bioassay procedure was modified to routinely include 0.2 mg/L (approximately 1 μM) kinetin in the background.
Cotyledon expansion growth: The effect of soy EML in the presence of kinetin on expansion growth was investigated and the results are shown in Table 1.

POD (EC 1.11.1.7) = experiment: POD activity in radish cotyledons; conditions: onset of organ maturity, FIG. 4
Description: as §1
To determine the effect of EML on induction of POD, activity of this enzyme was monitored during the 72 h incubation period after exposure to soy EML (20 mg/l) and the results are shown in FIG. 4. […] Highest POD activity was measured in control and ACC-treated cotyledons.

PPO (EC 1.14.18.1) = experiment: PPO activity in radish cotyledons; conditions: 20 mg/L, FIG. 6
Description: as §1
PPO (EC 1.14.18.1): Like PAL and POD, PPO is an important enzyme catalyzing lignin biosynthesis in plants.

PAL (EC 4.3.1.5) = experiment: PAL activity in radish cotyledons; conditions: 20 mg/L, FIG. 1
Description: as §1
(§2) PAL (EC 4.3.1.5) activity: Ethylene is produced by plants in response to a variety of stresses, including wounding (Kato, M et al. Plant and Cell Physiology 41:440-447, 2000). Assuming the stress is of sufficient intensity and duration plants will also begin to show signs of senescence. […]

radish cotyledons [2] = experiment: Protein content of radish cotyledons; conditions: 20 mg/L, FIG. 1
Description: as §1, §2

IAA oxidase = IAA oxidase activity in radish cotyledons; conditions: 20 mg/L, FIG. 7
Description: as §1
IAA Oxidase activity: IAA homeostasis is an important process contributing to correlative control of plant growth and development. Generally, IAA is synthesized in the apices and in shoots; apically derived IAA is basipetally transported. […]

| IAA oxidase activity (IAA oxidase) | Compound | % of control (change in fresh weight) (radish cotyledons [1]) [%] | Chlorophyll a + b (mg/g FW) (radish cotyledons [1]) | Chlorophyll a + b (μg/cotyledon) (radish cotyledons [1]) | Chlorophyll a/b (radish cotyledons [1]) | Change in fresh weight (radish cotyledons [1]) [mg] | POD activity at 48 and 72 h (POD (EC 1.11.1.7)) | PPO activity (PPO (EC 1.14.18.1)) | PAL activity (PAL (EC 4.3.1.5)) | protein content (radish cotyledons [2]) | activity at 20 µg/mL (radish cotyledons [1]; Raphanus sativus, read-out: % of control (change in fresh weight)) [%] |
| --- | --- | --- | --- | --- | --- | --- | --- | --- | --- | --- | --- |
|  | NC1(C(=O)O)CC1 [ACC, 1-amminocyclopropane-1-carboxylic acid] | 25 | 5.40 | 35.90 ± 6.13 | 0.83 | 2.56 ± 0.39 | Highest | appeared to suppress PPO activity | progressively delayed | delayed and reached a maximum only 24 h after exposure to light |  |
|  | c1coc(CNc2ncnc3[nH]cnc23)c1 [Kinetin, kinetin] |  | 2.17 | 54.10 ± 7.03 | 0.87 | 15.49 ± 1.81 | lowest | appeared to increase gradually over time | progressively delayed | rapid but transient increase | 153 |
| no apparent effect | lysophosphatidylethanolamine [LPE] |  |  |  |  |  |  | did not induce PPO activity |  |  |  |
